Results published in paper PMC9320886, “Daily Intraperitoneal Administration of Rosiglitazone Does Not Improve Lung Function or Alveolarization in Preterm Rabbits Exposed to Hyperoxia” (Pharmaceutics, 2022).
Read-outs that look alike come from different tables or passages of the source.

Columns and labels:
[1] = plasma protein binding by equilibrium dialysis; assay type: in vitro ADME; parameters: fraction unbound at 4 h: dose or concentration left out as unconfirmed; conditions: both sexes, New Zealand White, preterm rabbit plasma (pooled), 37 °C
Experimental: In vitro plasma protein binding was determined in preterm rabbit plasma (New Zealand White Pooled Gender, BIOIVT, Hicksville, NY, USA) by equilibrium dialysis using Thermo Fisher Scientific Pierce RED rapid equilibrium dialysis devices (Device Inserts 8K MWCO, Thermo Fisher Scientific, Waltham, MA, USA). The assay was performed using a Tecan Evoware robotic system (Männedorf, Switzerland). Test compounds and the positive control were diluted in the pooled plasma (three donors) to a final concentration of […] and then dispensed into the red chamber of the RED device inserts. Phosphate-Buffered Saline (PBS, from Merck KGaA, Darmstadt, Germany) was dispensed into the other side. Upon completion of 4 h of incubation (37 °C under shaking), equal aliquots were removed from each chamber and matrix matched with even volumes of plasma or buffer for LC-MS/MS analyses.
Free and Bound percentages of the compounds were calculated as follows:(1) %Free=Area buffer sample/Area plasma sample×100 (2) % Bound=100−%Free

[2] = Caco-2 permeability assay; assay type: in vitro ADME; conditions: human, apical to basolateral
Experimental: Caco-2 cells were purchased from ReadyCell (Barcelona, Spain). The cells arrived already seeded and differentiated (21-days) in 96-well plates (CacoReady 96-well kits, ReadyCell). Cells were maintained in a cell culture medium: Dulbecco’s modified Eagle’s medium (DMEM) 1 g/L glucose containing 10% fetal bovine serum, 1% L-glutamine 200 mM, and 1% penicillin (10,000 U/mL)–streptomycin (10 mg/mL), all from Merck KGaA. The buffer used in the assay was Hanks Balanced Salt Solution (HBSS, Merck). Control compounds were: sulpiride (low permeability control), metoprolol (high permeability control), talinolol (P-glycoprotein transport (Pgp) substrate control), and GF120918 (Elacridar, Pgp inhibitor), all purchased from Merck KGaA.
The day of the experiment, the integrity of the cell monolayers was assessed before and after the assay by measuring the transepithelial electrical resistance (TEER). The permeability of the compounds across the cell monolayer was determined by measuring their transport in both directions: apical to basolateral (A → B) and basolateral to apical (B → A) in the absence and presence of Elacridar (a known P-gp inhibitor). The donor working solution was prepared by dilution of the DMSO stock of the test compound or positive control with HBSS (pH 7.4) to 10 µM. For A → B directional transport, the donor working solution (with test compound or positive control, with or without P-gp inhibitor) was added to the apical (A) and HBSS was added to the basolateral (B) compartment. For B → A directional transport, the donor working solution (with positive control or test compound […], with or without P-gp inhibitor) was added to the basolateral (B) and HBSS was added to the apical (A) compartment. The assay was performed with a Hamilton Star Lab robotic system. Samples were collected at t0 and 2 h after incubation (5% CO2, 95% relative humidity, 37 °C) for LC-MS/MS analyses.
Apparent permeability (Papp) was calculated with the following equation: (5) Papp(cm/sec)=(Vr/C0)×(1/A)×(Cr(t)/t) where Vr is the volume of the solution in the receiving compartment (mL); C0 is the initial test compound concentration in the donor compartment (expressed as area ratio); A is the membrane surface area (0.14 cm^2); Cr (t) is the measured concentration of the receiver well at time t120 (expressed as area ratio); and t is time of incubation (sec).

[3] = test system: preterm rabbits exposed to hyperoxia; experiment: pulmonary efficacy, daily intraperitoneal 1 mg/kg, preterm rabbits exposed to hyperoxia; assay type: in vivo, rabbit; conditions: daily i.p. 1 mg/kg
Experimental: A total of 31 preterm rabbits with a GA of 28 days delivered from 4 does were included in the efficacy study. After delivery, newborn pups were put in hyperoxia (95% oxygen) for 1 h. Surviving pups were exposed to hyperoxia (95% O2) for 7 days and randomized to receiving daily (from postnatal day (PND) 0 to PND 6) intraperitoneal injections of RGZ at 1 mg/kg (n = 15) or the vehicle (n = 16).
Pups were placed on a sterilized soft bedding and remained in the incubator except for the feeding and treatments. Pups were fed 4 h after delivery on PND 0 with a milk replacer (Day One®, Protein 30%, Fat 50%; FoxValley, Aurora, IL, USA). Probiotics, electrolytes, and vitamins are added during the first 7 days (Bio-Lapis®; Probiotics International Ltd., Somerser, UK) and immunoglobulins during the first 2 days (Col-o-Cat®, SanoBest, Hertogenbosch, Netherlands). The standard feeding protocol consisted of incrementally increasing the amounts of milk replacer (PND 0: 40 mg/kg, PND 1: 50 mg/kg/day, PND 2: 75 mg/kg, PND 3–6: 100 mg/kg/day). On Day 2, vitamin K1 was administered intramuscularly (0.002 mg/kg BW, Konakion pediatrique®; Roche, Basel, Switzerland).
At Day 7, invasive lung function testing was performed using the forced oscillation technique with the flexiVent^TM apparatus (SCIREQ, Montréal, Canada). […]
The following parameters were measured: total inspiratory capacity, resistance of the respiratory system (Rrs), lung tissue damping (G), lung tissue elastance (H), and static compliance (Cst). […] The average of three measurements was calculated and used in the analysis. […]
The left lung and the right lungs were embedded in paraffin, cut, and stained with hematoxylin and eosin (H&E) following standard histology protocols. The radial alveolar count (RAC) was performed by an expert pathologist blinded to the experimental design by drawing a perpendicular line from the lumen of the terminal bronchiole to the nearest connective tissue septum or pleural margin and the number of saccules or alveoli crossed by this line was counted as previously described. […]

premature rabbits = test system: premature rabbits; parameters: method as in PMID 26375032; conditions: 3 mg/kg i.m. to the mothers 24 and 48 h prior to delivery; cited from earlier work

Question: For `CN(CCOc1ccc(CC2SC(=O)NC2=O)cc1)c1ccccn1` (stereo not shown) [RGZ, rosiglitazone], which fraction unbound at 4 h [1] is on record?
Answer: The fraction unbound at 4 h was 0.025.

Question: And the Papp A→B at 2 h, 10 µM ([2]; Caco-2, pH 7.4, with Elacridar (GF120918), concentration not given, with Elacridar, read-out: Papp with Pgp Inhibitor (A–B))?
Answer: Its Papp A→B at 2 h, 10 µM is 16.3 ×10⁻⁶ cm/s.

Question: What about the Papp A→B at 2 h, 10 µM ([2]; Caco-2, pH 7.4, 10 µM, 2 h, without Pgp inhibitor, read-out: Papp (A–B)) of the same compound?
Answer: Its Papp A→B at 2 h, 10 µM is 14.5 ×10⁻⁶ cm/s.

Question: What about the weight gain ([3]; PND 7) of the same compound?
Answer: The weight gain was 43.46 ± 4.84 g.

Question: And the “alveolarization (RAC)” value ([3]; PND 7, vs vehicle)?
Answer: The value was “neither improved”.

Question: What about the “lung function (inspiratory capacity, G, H and Cst)” value ([3]; PND 7, vs vehicle) of the same compound?
Answer: Its value is “neither improved”.

Question: What about the “hyperoxic lung injury at PND 7” value (premature rabbits) of the same compound?
Answer: The value was “attenuated”.
